Assay results published in patent EP1267623B1, “ACYCLIC MONOTERPENES AS ANTI-SPROUTING AGENTS FOR POTATO TUBERS” (COUNCIL OF SCIENTIFIC & INDUSTRIAL RESEARCH; An Indian …, priority 2000, dated 2001).

The compounds below were run on potato tubers (assay: Sprout inhibition after dipping tubers in 8 mM emulsions of purified compounds (Example 3)). Conditions: 8 mM emulsion with Tween 20, dipping 5 hours, then 10 days in jars at ambient temperature.
Type: in vivo
Procedure: Therefore essential oils were purified by column chromatography and substantially pure compounds were used.
Emulsion of the compounds were prepared of 8 mM concentration of each compound in distilled water containing 2x10-6 % Tween 20 as emulsifier ( control tubers were treated with Tween 20 only). Tubers were treated by dipping each tuber in emulsion for 5 hours, where upon excess liquid was allowed to drain off. Six tubers per treatment were used, with two replicates, and all experiments were repeated once. Tubers were then kept in jars for 10 days at ambient temperature. Tubers were then evaluated as in example 1 & 2 for percentage of sprouted eyes, tuber texture and fungal growth.
Geranyl acetate inhibited sprouting by 42%. […] A&M plants 3 (3) no. 1452 pp 183].
Geraniol, citral, citranellol, citranellal and menthyl acetate were as effective as reported monoterpenes such as benzaldehyde, cinnamaldehyde, eugenol and thymol (U.S.patent no. 5,129,951).

| SMILES | % eyes sprouted [%] |
| --- | --- |
| CC12CCC(CC1=O)C2(C)C (stereo not drawn) [Camphor] | 89 |
| CC(C)=CCCC(C)=CC=O [Citral] | 19 |
| CC(C)=CCC/C(C)=C/CO [Geraniol] | 16 |
| CC(=O)OC/C=C(\C)CCC=C(C)C [Geranyl acetate] | 58 |
| C=C(C)[C@@H]1CC=C(C)C(=O)C1 [I-carvone] | 100 |
| C=CC(C)(O)CCC=C(C)C (stereo not drawn) [Linalool] | 100 |
| C=C(C)[C@H]1CC=C(C)C(=O)C1 [d-carvone] | 93 |
| CC(C)=CCC[C@@H](C)CCO [d-citronellol] | 17 |
| CC(C)=CCC[C@H](C)CCO [l-citronellol] | 0.0 |

Same assay, conditions: 8 mM emulsion, dipping 5 hours, 10 days

| SMILES | effect on tuber sprouting (in words) | inhibited sprouting by [%] |
| --- | --- | --- |
| CC12CCC(CC1=O)C2(C)C (stereo not drawn) [Camphor] | no significant effect |  |
| CC(C)=CCCC(C)=CC=O [Citral] | completely inhibited sprouting |  |
| CC(C)=CCC/C(C)=C/CO [Geraniol] | completely inhibited sprouting |  |
| CC(=O)OC/C=C(\C)CCC=C(C)C [Geranyl acetate] |  | 42 |
| C=C(C)[C@@H]1CC=C(C)C(=O)C1 [I-carvone] | no significant effect |  |
| C=CC(C)(O)CCC=C(C)C (stereo not drawn) [Linalool] | no significant effect |  |
| C=C(C)[C@H]1CC=C(C)C(=O)C1 [d-carvone] | no significant effect |  |

Same assay, conditions: emulsion; dipped 5 hours, kept 10 days, then dipped again, repeated; after two months

| SMILES | dormancy of tubers under repeated treatment |
| --- | --- |
| CC(C)=CCCC(C)=CC=O [Citral] | completely dormant |
| CC(C)=CCC/C(C)=C/CO [Geraniol] | completely dormant |

The compounds below were run on potato tubers (assay: Sprout inhibition by dipping in geraniol and citral at different concentrations (Example 4)). Conditions: 4mM, dipping 5 hours, then 12 days in jars.
Type: in vivo
Procedure: Tubers were treated with geraniol and citral the two promising chemicals at different concentrations. The terpenes were applied at 4mM, 6mM and 8m M for 5 hours by dipping the tubers and then the tubers were kept in jars for 12 days.

| SMILES | % eyes sprouted [%] |
| --- | --- |
| CC(C)=CCCC(C)=CC=O [Citral] | 4.1 |
| CC(C)=CCC/C(C)=C/CO [Geraniol] | 7.5 |

Same assay, conditions: 6mM, dipping 5 hours, then 12 days in jars

| SMILES | % eyes sprouted [%] |
| --- | --- |
| CC(C)=CCCC(C)=CC=O [Citral] | 0.0 |
| CC(C)=CCC/C(C)=C/CO [Geraniol] | 0.0 |

Same assay, conditions: 8 mM, dipping 5 hours, then 12 days in jars

| SMILES | % eyes sprouted [%] |
| --- | --- |
| CC(C)=CCCC(C)=CC=O [Citral] | 0.0 |
| CC(C)=CCC/C(C)=C/CO [Geraniol] | 0.0 |

Same assay, conditions: experiment continued till 20 days after treatment (6 and 8 mM)

| SMILES | sprouting till 20 days after treatment |
| --- | --- |
| CC(C)=CCCC(C)=CC=O [Citral] | sprouting was not observed |
| CC(C)=CCC/C(C)=C/CO [Geraniol] | sprouting was not observed |

The compounds below were run on potato tubers (assay: Sprout inhibition by exposure to fumes of citral from a vaporizer for 1, 2 or 4 days (Example 7)). Conditions: exposure to fumes for 1 Day (24 hour); 14 days after treatment.
Type: in vivo
Procedure: The tubers were exposed to fumes of citral with the help of a vaporizer at ambient temperature in a close atmosphere for 24 hour, 48 hour and 96 hours. The tubers were then placed in flask containing fresh air and free of any additional volatilized compound. Control tubers were placed in sealed flasks lacking any added compounds. Fourteen days after treatment all tubers examined for percentage of eyes sprouted, tuber texture and fungal growth. 7

| SMILES | % eyes sprouted [%] |
| --- | --- |
| CC(C)=CCCC(C)=CC=O [Citral] | 18.5 |

Same assay, conditions: exposure to fumes for 2 Days (48 hour); 14 days after treatment

| SMILES | % eyes sprouted [%] |
| --- | --- |
| CC(C)=CCCC(C)=CC=O [Citral] | 8.3 |

Same assay, conditions: exposure to fumes for 4 Days (96 hours); 14 days after treatment

| SMILES | % eyes sprouted [%] |
| --- | --- |
| CC(C)=CCCC(C)=CC=O [Citral] | 0.0 |

What follows are compounds tested on potato tubers (assay: Sprout inhibition by dipping in combinations of monoterpenes and other compounds (Example 5)). Conditions: dipping five hours in aqueous solution with Tween 20; 4-8 mM; after 3 days.
Type: in vivo
Procedure: Combination of 4-8 mM of each geraniol, citral , citronella and citronellal were tried to determine the best combination. Along with this some other compounds were also tried. The terpenes were applied by dipping the tubers for five hours in aqueous solution of the monoterpenes containing Tween 20 as emulsifying agent. […] Other chemicals were not very effective. Results are given in table 5.Menthol, anisaldehyde, thymol, cinnamom bark oil and thymol has been used earlier (U.S. Patent No. 5,129,951 ) and were effective.

| SMILES | % eyes sprouted After 3 days [%] |
| --- | --- |
| CC=Cc1ccc(OC)cc1 [Anethol] | 0.0 |
| COc1ccc(C=O)cc1 [Anisaldehyde] | 78 |
| CC1CCC(C(C)C)C(O)C1 (stereo not drawn) [Menthol] | 29 |
| CC(=O)OC1CC(C)CCC1C(C)C (stereo not drawn) [Menthyl acetate] | 0.0 |
| Cc1ccc(C(C)C)c(O)c1 [Thymol] | 79 |

Same assay, conditions: dipping five hours in aqueous solution with Tween 20; 4-8 mM; after 7 days

| SMILES | % eyes sprouted after 7 days [%] |
| --- | --- |
| CC=Cc1ccc(OC)cc1 [Anethol] | 0.0 |
| COc1ccc(C=O)cc1 [Anisaldehyde] | 96 |
| CC1CCC(C(C)C)C(O)C1 (stereo not drawn) [Menthol] | 29 |
| CC(=O)OC1CC(C)CCC1C(C)C (stereo not drawn) [Menthyl acetate] | 0.0 |
| Cc1ccc(C(C)C)c(O)c1 [Thymol] | 98 |

Same assay, conditions: dipping five hours in aqueous solution with Tween 20; 4-8 mM; after 14 days

| SMILES | % eyes sprouted after 14 days [%] |
| --- | --- |
| CC=Cc1ccc(OC)cc1 [Anethol] | 51 |
| COc1ccc(C=O)cc1 [Anisaldehyde] | 96 |
| CC1CCC(C(C)C)C(O)C1 (stereo not drawn) [Menthol] | 29 |
| CC(=O)OC1CC(C)CCC1C(C)C (stereo not drawn) [Menthyl acetate] | 0.0 |
| Cc1ccc(C(C)C)c(O)c1 [Thymol] | 98 |

The compounds below were run on potato tubers (assay: Sprout inhibition by exposure to vapours of volatilized compounds for seven days (Example 6)). Conditions: exposed to vapours (1 ml on filter paper, saturated atmosphere) for seven days; 14 days after removal.
Type: in vivo
Excerpt: Tubers treated with emulsions of different aromatic compounds remained dormant. Therefore, it was tried to find out the response when tubers were exposed to vapours of volatilized compounds for sprout inhibition. Substantially pure compounds were used as in other examples. Six potatoes were placed in air tight jars containing 9 cm piece of filter paper saturated with one ml of the liquid compound. These amounts were sufficient to produce a saturated atmosphere in the flask. The filter paper was placed in the cap of the flask so that no direct physical contact with the tuber occurred. The tubers were removed after seven days and placed in flasks containing fresh air at ambient temperature. Control tubers were placed in sealed flask lacking any added compound. […] Such short term treatment would greatly lessen costs to the potato industry.

| SMILES | % eyes sprouted [%] |
| --- | --- |
| CC(C)=CCCC(C)=CC=O [Citral] | 0.0 |
| CC(C)=CCC/C(C)=C/CO [Geraniol] | 0.0 |
| CC(=O)OC1CC(C)CCC1C(C)C (stereo not drawn) [Menthyl acetate] | 0.0 |
| CC(C)=CCCC(C)CC=O (stereo not drawn) [citronellal] | 0.0 |
| CC(C)=CCC[C@@H](C)CCO [d-citronellol] | 0.0 |

Same assay, conditions: exposed to vapours for seven days; 18 days after removal

| SMILES | sprouting 18 days after removal from treatment flask |
| --- | --- |
| CC(C)=CCCC(C)=CC=O [Citral] | remained unsprouted |
| CC(C)=CCC/C(C)=C/CO [Geraniol] | remained unsprouted |
| CC(=O)OC1CC(C)CCC1C(C)C (stereo not drawn) [Menthyl acetate] | remained unsprouted |
| CC(C)=CCCC(C)CC=O (stereo not drawn) [citronellal] | remained unsprouted |
| CC(C)=CCC[C@@H](C)CCO [d-citronellol] | remained unsprouted |
